What was measured:
[1] = test system: MCF7; experiment: Antiproliferative activity against human MCF7 cells assessed as reduction in cell viability after 48 hrs by SRB assay; type: functional, cell-based; conditions: MCF7, 48 h
[2] = test system: HeLa; experiment: Antiproliferative activity against human HeLa cells assessed as reduction in cell viability after 48 hrs by SRB assay; type: functional
[3] = test system: HepG2; experiment: Antiproliferative activity against human HepG2 cells assessed as reduction in cell viability after 48 hrs by SRB assay; type: functional; conditions: HepG2, 48 h
[4] = test system: IMR-32; experiment: Antiproliferative activity against human IMR32 cells assessed as reduction in cell viability after 48 hrs by SRB assay; type: functional; conditions: IMR-32, 48 h
[5] = test system: K562; experiment: Antiproliferative activity against human K562 cells assessed as reduction in cell viability after 24 hrs by MTT assay; type: functional, cell-based; conditions: K562, 24 h
[6] = test system: PC-3; experiment: Antiproliferative activity against human PC3 cells assessed as reduction in cell viability after 24 hrs by MTT assay; type: functional, cell-based; conditions: PC-3, 24 h
[7] = test system: A-431; experiment: Antiproliferative activity against human A431 cells assessed as reduction in cell viability after 24 hrs by MTT assay; type: functional, cell-based; conditions: A-431, 24 h
[8] = test system: MDA-MB-231; experiment: Antiproliferative activity against human MDA-MB-231 cells assessed as reduction in cell viability after 24 hrs by MTT assay; type: functional, cell-based; conditions: MDA-MB-231, 24 h
[9] = test system: COLO 205; experiment: Antiproliferative activity against human COLO205 cells assessed as reduction in cell viability after 24 hrs by MTT assay; type: functional, cell-based; conditions: COLO 205, 24 h
[10] = test system: A549; experiment: Antiproliferative activity against human A549 cells assessed as reduction in cell viability after 24 hrs by MTT assay; type: functional, cell-based; conditions: A549, 24 h
[11] = test system: A549; experiment: cells; type: functional, cell-based; conditions: Homo sapiens
Description: Antiproliferative activity against human A549 cells by MTT assay

[12] = test system: HBL-100; experiment: Antiproliferative activity against human HBL100 cells by MTT assay; type: functional, cell-based
[13] = test system: HeLa; experiment: Antiproliferative activity against human HeLa cells by MTT assay; type: functional, cell-based
[14] = test system: SW1573; experiment: Antiproliferative activity against human SW1573 cells by MTT assay; type: functional, cell-based
[15] = test system: T47D; experiment: Antiproliferative activity against human T47D cells by MTT assay; type: functional, cell-based
[16] = test system: WiDr; experiment: Antiproliferative activity against human WiDr cells by MTT assay; type: functional, cell-based
[17] = test system: HepG2; experiment: Antiproliferative activity against human HepG2 cells by MTT assay; type: functional, cell-based
[18] = test system: KB; experiment: Antiproliferative activity against human KB cells by MTT assay; type: functional, cell-based
[19] = test system: MCF7; experiment: cells; type: functional, cell-based; conditions: Homo sapiens
Description: Antiproliferative activity against human MCF7 cells by MTT assay

[20] = test system: MDA-MB-231; experiment: Antiproliferative activity against human MDA-MB-231 cells by MTT assay; type: functional, cell-based

| IC50 [11] | IC50 [13] | IC50 [14] | IC50 [15] | Structure (SMILES) | IC50 [5] | IC50 [6] | IC50 [7] | IC50 [8] | IC50 [9] | IC50 [10] | IC50 [12] | IC50 [16] | other results |
| --- | --- | --- | --- | --- | --- | --- | --- | --- | --- | --- | --- | --- | --- |
|  |  |  |  | COc1ccc(Cn2cc(COc3cnn(-c4ccc(C)cc4)c3)nn2)cc1 |  |  |  |  |  |  |  |  | GI50 [1]: 1.8 to 9.7 µM; GI50 [2]: 1.8 to 9.7 µM; GI50 [3]: 1.8 to 9.7 µM; GI50 [4]: 1.8 to 9.7 µM |
|  |  |  |  | Cc1ccc(-c2c(OCc3cn(Cc4ccc([N+](=O)[O-])cc4)nn3)cnn2-c2ccc(F)cc2)cc1 |  |  |  |  |  |  |  |  | GI50 [1]: 1.8 to 9.7 µM; GI50 [2]: 1.8 to 9.7 µM; GI50 [3]: 1.8 to 9.7 µM; GI50 [4]: 1.8 to 9.7 µM |
|  |  |  |  | C[C@H]1[C@@H](OCc2cn(-c3ccc(O)cc3)nn2)O[C@@H]2O[C@@]3(C)CC[C@H]4[C@H](C)CC[C@@H]1[C@@]24OO3 | 4.06 to 36.6 µM | 4.06 to 36.6 µM | 4.06 to 36.6 µM | 4.06 to 36.6 µM | 4.06 to 36.6 µM | 4.06 to 36.6 µM |  |  |  |
|  |  |  |  | C[C@H]1[C@@H](OCc2cn(-c3ccc(C#N)cc3)nn2)O[C@@H]2O[C@@]3(C)CC[C@H]4[C@H](C)CC[C@@H]1[C@@]24OO3 | 4.06 to 89.9 µM | 4.06 to 89.9 µM | 4.06 to 89.9 µM | 4.06 to 89.9 µM | 4.06 to 89.9 µM | 4.06 to 89.9 µM |  |  |  |
| 3.1 to 88 µM | 3.1 to 88 µM | 3.1 to 88 µM | 3.1 to 88 µM | COC(=O)c1coc([C@H](Cc2ccccc2)n2cc(CC3CC(O[Si](C)(C)C(C)(C)C)CC(C(C)C)C3)nn2)n1 (stereo not given in full) |  |  |  |  |  |  | 3.1 to 88 µM | 3.1 to 88 µM |  |
|  |  |  |  | CC(=O)c1cccc(-n2cc(CO[C@H]3O[C@@H]4O[C@@]5(C)CC[C@H]6[C@H](C)CC[C@@H]([C@H]3C)[C@@]46OO5)nn2)c1 | 4.06 to 89.9 µM | 4.06 to 89.9 µM | 4.06 to 89.9 µM | 4.06 to 89.9 µM | 4.06 to 89.9 µM | 4.06 to 89.9 µM |  |  |  |
| 3.1 to 88 µM | 3.1 to 88 µM | 3.1 to 88 µM | 3.1 to 88 µM | COC(=O)c1coc(Cn2cc(CC3CC(O[Si](C)(C)C(C)(C)C)CC(C(C)C)C3)nn2)n1 (stereo not given) |  |  |  |  |  |  | 3.1 to 88 µM | 3.1 to 88 µM |  |
|  |  |  |  | Fc1ccc(-n2ncc(OCc3cn(Cc4cccc(Cl)c4)nn3)c2-c2ccc(Cl)cc2)cc1 |  |  |  |  |  |  |  |  | GI50 [1]: 1.8 to 9.7 µM; GI50 [2]: 1.8 to 9.7 µM; GI50 [3]: 1.8 to 9.7 µM; GI50 [4]: 1.8 to 9.7 µM |
|  |  |  |  | C[C@H]1[C@@H](OCc2cn(-c3ccc([N+](=O)[O-])cc3)nn2)O[C@@H]2O[C@@]3(C)O[C@]24[C@H]1CC[C@@H](C)[C@@H]4C[C@H]3O | 4.06 to 89.9 µM | 4.06 to 89.9 µM | 4.06 to 89.9 µM | 4.06 to 89.9 µM | 4.06 to 89.9 µM | 4.06 to 89.9 µM |  |  |  |
| 3.1 to 88 µM | 3.1 to 88 µM | 3.1 to 88 µM | 3.1 to 88 µM | CCCC1CC(Cc2cn([C@@H](Cc3ccccc3)c3nc(C(=O)OC)co3)nn2)CC(O[Si](C)(C)C(C)(C)C)C1 (stereo not given in full) |  |  |  |  |  |  | 3.1 to 88 µM | 3.1 to 88 µM |  |
|  |  |  |  | C=C(C)[C@@H]1CC[C@]2(COC(=O)/C=C/C(=O)OCc3cn([C@H]4C[C@H](n5ccc(=O)[nH]c5=O)O[C@@H]4CO)nn3)CC[C@]3(C)[C@H](CC[C@@H]4[C@@]5(C)CC[C@H](O)C(C)(C)[C@@H]5CC[C@]43C)C12 (stereo not given in full) |  |  |  |  |  |  |  |  | IC50 [17]: 1.3 µM; IC50 [18]: 0.3 µM |
|  |  |  |  | O=[N+]([O-])c1ccc(Cn2cc(COc3cnn(-c4ccccc4)c3-c3ccccc3)nn2)cc1 |  |  |  |  |  |  |  |  | GI50 [1]: 1.8 to 9.7 µM; GI50 [2]: 1.8 to 9.7 µM; GI50 [3]: 1.8 to 9.7 µM; GI50 [4]: 1.8 to 9.7 µM |
| 3.1 to 88 µM | 3.1 to 88 µM | 3.1 to 88 µM | 3.1 to 88 µM | COC(=O)c1coc(Cn2cc(CC3CC(CCc4ccccc4)CC(O[Si](C)(C)C(C)(C)C)C3)nn2)n1 (stereo not given) |  |  |  |  |  |  | 3.1 to 88 µM | 3.1 to 88 µM |  |
|  |  |  |  | CC(=O)c1cccc(-n2cc(CO[C@H]3O[C@@H]4O[C@@]5(C)O[C@]46[C@@H](CC[C@@H](C)[C@@H]6C[C@H]5O)[C@H]3C)nn2)c1 | 4.06 to 89.9 µM | 4.06 to 89.9 µM | 4.06 to 89.9 µM | 4.06 to 89.9 µM | 4.06 to 89.9 µM | 4.06 to 89.9 µM |  |  |  |
|  |  |  |  | C[C@H]1[C@H](OC(=O)CCC(=O)O)O[C@@H]2O[C@@]3(C)CC[C@H]4[C@H](C)CC[C@@H]1[C@@]24OO3 [ARTESUNATE] |  |  |  |  |  |  |  |  | IC50 [17]: 59.4 µM; IC50 [18]: 78.5 µM |
| 3.1 to 88 µM | 3.1 to 88 µM | 3.1 to 88 µM | 3.1 to 88 µM | COC(=O)c1coc([C@H](Cc2ccccc2)n2cc(CC3CC(CCc4ccccc4)CC(O[Si](C)(C)C(C)(C)C)C3)nn2)n1 (stereo not given in full) |  |  |  |  |  |  | 3.1 to 88 µM | 3.1 to 88 µM |  |
|  |  |  |  | CC(=O)c1ccccc1-n1cc(CO[C@H]2O[C@@H]3O[C@@]4(C)O[C@]35[C@@H](CC[C@@H](C)[C@@H]5C[C@H]4O)[C@H]2C)nn1 | 4.06 to 89.9 µM | 4.06 to 89.9 µM | 4.06 to 89.9 µM | 4.06 to 89.9 µM | 4.06 to 89.9 µM | 4.06 to 89.9 µM |  |  |  |
|  |  |  | 11 to 16.6 µM | COc1ccc(Cn2cc(Cn3c4ccccc4c(=O)c4cc(OC)ccc43)nn2)cc1 |  |  |  |  |  |  |  |  | IC50 [19]: 11 to 16.6 µM; IC50 [20]: 11 to 16.6 µM |
| 3.1 to 88 µM | 3.1 to 88 µM | 3.1 to 88 µM | 3.1 to 88 µM | C=CCC1CC(Cc2cn([C@H](c3nc(C(=O)OC)co3)C(C)CC)nn2)CC(O[Si](C)(C)C(C)(C)C)C1 (stereo not given in full) |  |  |  |  |  |  | 3.1 to 88 µM | 3.1 to 88 µM |  |

From ChEMBL document CHEMBL4342418, “1,2,3-Triazole-containing hybrids as potential anticancer agents: Current developments, action mechanisms and structure-activity relationships” (Eur J Med Chem, 2019)
